Data on 10 compounds can be found in ChEMBL document CHEMBL3991601, “The target landscape of clinical kinase drugs” (Science, 2017).

Assay [1] concerns the target T1, Acyl-CoA dehydrogenase family member 10 (Homo sapiens, UniProt Q6JQN1).
T1 sequence (Q6JQN1 whole entry): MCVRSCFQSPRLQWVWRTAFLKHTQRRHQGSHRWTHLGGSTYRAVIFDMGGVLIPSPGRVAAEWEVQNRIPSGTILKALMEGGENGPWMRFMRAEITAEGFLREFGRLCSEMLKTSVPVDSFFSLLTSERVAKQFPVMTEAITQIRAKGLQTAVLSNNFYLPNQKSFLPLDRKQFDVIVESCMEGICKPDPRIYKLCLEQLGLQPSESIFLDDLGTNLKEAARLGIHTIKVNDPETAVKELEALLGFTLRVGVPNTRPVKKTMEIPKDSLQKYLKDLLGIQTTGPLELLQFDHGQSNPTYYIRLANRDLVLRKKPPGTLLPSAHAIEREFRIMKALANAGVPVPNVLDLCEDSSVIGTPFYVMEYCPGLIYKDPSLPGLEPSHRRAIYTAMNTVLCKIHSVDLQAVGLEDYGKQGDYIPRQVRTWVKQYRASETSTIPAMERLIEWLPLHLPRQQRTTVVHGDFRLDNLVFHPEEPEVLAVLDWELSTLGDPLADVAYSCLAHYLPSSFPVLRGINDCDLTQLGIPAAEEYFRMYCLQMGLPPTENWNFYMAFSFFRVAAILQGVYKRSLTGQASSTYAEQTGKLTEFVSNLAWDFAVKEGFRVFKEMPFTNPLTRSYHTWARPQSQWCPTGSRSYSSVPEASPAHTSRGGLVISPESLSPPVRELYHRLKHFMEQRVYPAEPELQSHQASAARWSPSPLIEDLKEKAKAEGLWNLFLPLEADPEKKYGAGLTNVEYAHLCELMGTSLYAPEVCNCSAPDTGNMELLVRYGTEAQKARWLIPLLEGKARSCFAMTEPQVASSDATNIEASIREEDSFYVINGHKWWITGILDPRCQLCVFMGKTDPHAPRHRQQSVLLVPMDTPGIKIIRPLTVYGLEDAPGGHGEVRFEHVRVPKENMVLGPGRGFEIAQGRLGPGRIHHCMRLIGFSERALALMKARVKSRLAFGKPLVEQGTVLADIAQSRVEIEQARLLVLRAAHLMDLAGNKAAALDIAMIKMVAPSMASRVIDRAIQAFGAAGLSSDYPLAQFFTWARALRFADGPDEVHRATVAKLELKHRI

Assay [2] deals with Cyclin-dependent kinase 13 (Homo sapiens, UniProt Q14004).
Assay [3] addresses MAP kinase-activated protein kinase 2 (Homo sapiens, UniProt P49137).
Assay [4] has as its target T2, Serine/threonine-protein kinase D3 (Homo sapiens, UniProt O94806).
T2 sequence (O94806 whole entry): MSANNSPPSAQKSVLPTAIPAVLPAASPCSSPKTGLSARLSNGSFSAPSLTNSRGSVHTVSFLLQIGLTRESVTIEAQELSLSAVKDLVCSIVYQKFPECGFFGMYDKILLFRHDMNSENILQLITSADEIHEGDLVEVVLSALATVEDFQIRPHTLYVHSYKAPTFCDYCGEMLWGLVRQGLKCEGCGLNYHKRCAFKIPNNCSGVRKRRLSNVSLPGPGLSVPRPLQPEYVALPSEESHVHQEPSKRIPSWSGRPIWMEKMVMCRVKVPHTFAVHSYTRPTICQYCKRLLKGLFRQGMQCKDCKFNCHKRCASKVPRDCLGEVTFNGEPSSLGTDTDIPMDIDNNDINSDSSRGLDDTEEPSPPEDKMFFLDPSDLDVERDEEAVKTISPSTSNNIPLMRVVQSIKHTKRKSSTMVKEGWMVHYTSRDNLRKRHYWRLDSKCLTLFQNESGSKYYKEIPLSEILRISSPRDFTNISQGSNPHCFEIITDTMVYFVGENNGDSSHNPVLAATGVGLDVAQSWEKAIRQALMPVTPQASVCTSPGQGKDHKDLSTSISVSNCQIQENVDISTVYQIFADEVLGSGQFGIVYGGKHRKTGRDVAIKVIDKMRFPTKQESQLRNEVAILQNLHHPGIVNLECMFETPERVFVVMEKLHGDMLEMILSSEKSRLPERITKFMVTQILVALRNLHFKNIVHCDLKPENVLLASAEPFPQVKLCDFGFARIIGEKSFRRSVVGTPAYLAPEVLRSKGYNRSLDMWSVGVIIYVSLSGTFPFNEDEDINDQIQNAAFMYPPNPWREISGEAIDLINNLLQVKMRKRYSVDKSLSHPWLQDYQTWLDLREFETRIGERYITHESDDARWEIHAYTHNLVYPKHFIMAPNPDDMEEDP

The target of assay [5] is Mitogen-activated protein kinase kinase kinase 1 (Homo sapiens, UniProt Q13233).
Assay [6] concerns the target Deoxycytidine kinase (Homo sapiens, UniProt P27707).
In assay [7] the target is T3, Ras-related protein Rab-27A (Homo sapiens, UniProt P51159).
T3 sequence (P51159 whole entry): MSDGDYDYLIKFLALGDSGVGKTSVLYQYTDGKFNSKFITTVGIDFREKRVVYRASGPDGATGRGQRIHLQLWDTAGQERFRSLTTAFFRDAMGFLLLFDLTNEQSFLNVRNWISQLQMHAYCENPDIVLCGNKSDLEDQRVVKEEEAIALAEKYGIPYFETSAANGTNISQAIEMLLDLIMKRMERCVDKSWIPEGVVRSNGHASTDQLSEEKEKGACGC

The target in assay [8] is Insulin-like growth factor 1 receptor (Homo sapiens, UniProt P08069).
In assay [9] the target is Ephrin type-A receptor 2 (Homo sapiens, UniProt P29317).
The target of assay [10] is T4, Calcium/calmodulin-dependent protein kinase type IV (Homo sapiens, UniProt Q16566).
T4 sequence (Q16566 whole entry): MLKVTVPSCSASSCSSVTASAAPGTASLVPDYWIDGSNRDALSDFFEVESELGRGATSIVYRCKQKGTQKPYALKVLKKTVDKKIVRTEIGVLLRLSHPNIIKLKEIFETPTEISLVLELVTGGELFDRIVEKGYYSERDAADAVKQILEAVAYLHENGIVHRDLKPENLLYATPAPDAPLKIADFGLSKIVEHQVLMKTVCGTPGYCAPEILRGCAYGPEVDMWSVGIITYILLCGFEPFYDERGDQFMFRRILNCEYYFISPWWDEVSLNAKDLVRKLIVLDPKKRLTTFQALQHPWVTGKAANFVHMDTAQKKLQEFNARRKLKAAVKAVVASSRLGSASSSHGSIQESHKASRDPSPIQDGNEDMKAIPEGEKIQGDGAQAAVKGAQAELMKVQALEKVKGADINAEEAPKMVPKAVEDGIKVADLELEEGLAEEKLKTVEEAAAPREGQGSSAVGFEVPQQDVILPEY

Active and inactive are the calls of the source. Rule as the data show it, for most assays here: actives have a measured Kd and inactives only a lower limit.
Also: in the data inactive means no Kd found up to 30 µM.

Sequence of MAP kinase-activated protein kinase 2 (P49137 whole entry): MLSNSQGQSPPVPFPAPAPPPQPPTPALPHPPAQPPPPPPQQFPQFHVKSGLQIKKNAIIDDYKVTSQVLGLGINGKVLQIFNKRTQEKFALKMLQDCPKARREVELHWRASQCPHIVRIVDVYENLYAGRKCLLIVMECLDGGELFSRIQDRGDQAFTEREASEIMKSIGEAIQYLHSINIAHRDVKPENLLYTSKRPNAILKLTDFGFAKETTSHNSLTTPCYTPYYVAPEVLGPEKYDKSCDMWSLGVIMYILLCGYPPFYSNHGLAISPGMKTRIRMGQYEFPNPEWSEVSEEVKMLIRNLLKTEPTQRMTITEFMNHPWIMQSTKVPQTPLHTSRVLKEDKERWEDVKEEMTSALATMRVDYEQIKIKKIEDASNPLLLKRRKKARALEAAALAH
Sequence of Ephrin type-A receptor 2 (P29317 whole entry): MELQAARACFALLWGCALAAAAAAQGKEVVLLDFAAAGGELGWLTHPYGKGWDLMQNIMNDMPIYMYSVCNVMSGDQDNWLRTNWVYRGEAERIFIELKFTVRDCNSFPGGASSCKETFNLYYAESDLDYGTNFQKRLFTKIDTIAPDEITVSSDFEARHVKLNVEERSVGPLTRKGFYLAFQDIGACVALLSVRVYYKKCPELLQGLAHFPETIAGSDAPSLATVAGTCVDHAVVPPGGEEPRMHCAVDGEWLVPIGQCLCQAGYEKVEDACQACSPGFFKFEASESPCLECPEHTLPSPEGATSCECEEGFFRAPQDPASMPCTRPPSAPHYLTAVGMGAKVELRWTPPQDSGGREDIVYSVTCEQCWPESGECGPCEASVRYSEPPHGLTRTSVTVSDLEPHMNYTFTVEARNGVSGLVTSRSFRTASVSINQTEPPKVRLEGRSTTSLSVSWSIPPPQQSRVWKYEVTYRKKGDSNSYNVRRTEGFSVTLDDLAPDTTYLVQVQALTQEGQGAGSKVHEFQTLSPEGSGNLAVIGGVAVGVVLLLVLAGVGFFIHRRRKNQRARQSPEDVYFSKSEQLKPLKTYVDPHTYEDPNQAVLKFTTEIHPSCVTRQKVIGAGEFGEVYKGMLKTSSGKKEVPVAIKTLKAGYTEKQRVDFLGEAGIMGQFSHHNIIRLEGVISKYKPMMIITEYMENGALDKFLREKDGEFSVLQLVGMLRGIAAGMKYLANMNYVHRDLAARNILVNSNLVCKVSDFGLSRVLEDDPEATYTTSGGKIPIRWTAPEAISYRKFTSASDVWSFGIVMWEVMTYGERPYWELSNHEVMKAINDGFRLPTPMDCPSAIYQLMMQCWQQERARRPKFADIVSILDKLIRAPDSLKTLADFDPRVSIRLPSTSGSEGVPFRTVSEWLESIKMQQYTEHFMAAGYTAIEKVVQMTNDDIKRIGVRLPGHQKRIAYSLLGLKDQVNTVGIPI
Sequence of Deoxycytidine kinase (P27707 whole entry): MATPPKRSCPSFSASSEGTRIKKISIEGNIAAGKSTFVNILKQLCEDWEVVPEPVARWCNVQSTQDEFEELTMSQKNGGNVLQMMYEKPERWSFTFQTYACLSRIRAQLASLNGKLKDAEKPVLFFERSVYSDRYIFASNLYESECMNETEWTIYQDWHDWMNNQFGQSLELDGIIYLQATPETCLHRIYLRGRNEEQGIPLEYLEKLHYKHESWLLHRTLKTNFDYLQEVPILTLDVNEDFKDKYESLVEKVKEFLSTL
Sequence of Cyclin-dependent kinase 13 (Q14004 whole entry): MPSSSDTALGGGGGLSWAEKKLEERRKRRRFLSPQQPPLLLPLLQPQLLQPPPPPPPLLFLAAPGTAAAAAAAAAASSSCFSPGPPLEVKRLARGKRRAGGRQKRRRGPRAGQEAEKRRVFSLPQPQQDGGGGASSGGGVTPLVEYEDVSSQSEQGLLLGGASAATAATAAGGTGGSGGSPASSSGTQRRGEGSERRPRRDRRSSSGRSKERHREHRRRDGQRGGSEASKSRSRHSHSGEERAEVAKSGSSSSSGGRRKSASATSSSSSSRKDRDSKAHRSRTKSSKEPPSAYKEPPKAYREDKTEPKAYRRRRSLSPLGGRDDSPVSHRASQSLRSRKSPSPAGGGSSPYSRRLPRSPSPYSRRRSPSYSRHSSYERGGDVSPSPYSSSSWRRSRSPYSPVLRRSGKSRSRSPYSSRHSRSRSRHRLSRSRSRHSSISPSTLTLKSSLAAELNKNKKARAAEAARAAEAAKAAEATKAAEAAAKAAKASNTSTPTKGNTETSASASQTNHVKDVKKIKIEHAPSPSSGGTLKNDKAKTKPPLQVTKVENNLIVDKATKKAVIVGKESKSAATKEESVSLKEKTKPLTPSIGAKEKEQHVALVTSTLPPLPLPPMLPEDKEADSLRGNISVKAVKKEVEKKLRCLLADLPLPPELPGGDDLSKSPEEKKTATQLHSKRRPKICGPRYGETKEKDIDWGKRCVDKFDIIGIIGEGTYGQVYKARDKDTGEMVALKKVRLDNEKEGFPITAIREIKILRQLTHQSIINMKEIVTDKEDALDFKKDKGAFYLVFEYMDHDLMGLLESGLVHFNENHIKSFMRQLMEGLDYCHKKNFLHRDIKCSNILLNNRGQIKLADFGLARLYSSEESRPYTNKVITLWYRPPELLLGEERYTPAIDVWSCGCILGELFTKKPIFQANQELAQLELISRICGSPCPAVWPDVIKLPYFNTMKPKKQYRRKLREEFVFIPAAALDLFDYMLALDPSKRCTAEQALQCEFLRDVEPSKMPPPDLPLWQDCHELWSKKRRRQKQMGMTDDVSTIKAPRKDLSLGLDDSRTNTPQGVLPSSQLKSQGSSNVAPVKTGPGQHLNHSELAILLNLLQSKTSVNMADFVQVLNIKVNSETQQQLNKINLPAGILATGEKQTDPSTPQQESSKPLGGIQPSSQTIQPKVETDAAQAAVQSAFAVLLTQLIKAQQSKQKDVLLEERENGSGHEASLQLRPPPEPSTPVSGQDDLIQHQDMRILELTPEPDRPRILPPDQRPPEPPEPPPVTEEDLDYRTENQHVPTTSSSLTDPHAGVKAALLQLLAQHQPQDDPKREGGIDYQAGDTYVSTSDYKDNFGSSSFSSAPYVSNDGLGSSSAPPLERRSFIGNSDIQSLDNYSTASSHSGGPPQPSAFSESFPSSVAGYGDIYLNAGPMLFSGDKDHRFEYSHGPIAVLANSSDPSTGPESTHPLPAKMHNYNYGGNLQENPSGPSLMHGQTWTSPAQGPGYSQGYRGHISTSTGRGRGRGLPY
Sequence of Insulin-like growth factor 1 receptor (P08069 31-736 limits assumed): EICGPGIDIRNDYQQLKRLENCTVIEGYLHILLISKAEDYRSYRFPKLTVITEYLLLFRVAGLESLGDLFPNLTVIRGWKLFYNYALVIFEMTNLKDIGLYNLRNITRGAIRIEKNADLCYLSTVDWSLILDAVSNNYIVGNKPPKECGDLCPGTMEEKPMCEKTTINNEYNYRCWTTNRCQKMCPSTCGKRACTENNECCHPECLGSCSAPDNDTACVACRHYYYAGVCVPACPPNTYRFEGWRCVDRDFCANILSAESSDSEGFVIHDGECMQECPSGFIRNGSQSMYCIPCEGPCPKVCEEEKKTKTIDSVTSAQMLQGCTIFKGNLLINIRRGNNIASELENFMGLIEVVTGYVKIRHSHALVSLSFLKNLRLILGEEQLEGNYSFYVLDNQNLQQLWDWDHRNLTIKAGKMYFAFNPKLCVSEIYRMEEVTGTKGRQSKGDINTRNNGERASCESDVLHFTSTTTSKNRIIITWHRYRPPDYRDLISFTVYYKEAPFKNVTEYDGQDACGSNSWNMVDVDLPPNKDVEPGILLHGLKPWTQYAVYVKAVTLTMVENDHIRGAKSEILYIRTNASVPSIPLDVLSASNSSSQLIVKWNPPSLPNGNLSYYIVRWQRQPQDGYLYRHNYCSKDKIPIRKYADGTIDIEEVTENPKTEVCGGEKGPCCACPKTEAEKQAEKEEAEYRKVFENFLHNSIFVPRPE
Sequence of Insulin-like growth factor 1 receptor (P08069 741-1367 limits assumed): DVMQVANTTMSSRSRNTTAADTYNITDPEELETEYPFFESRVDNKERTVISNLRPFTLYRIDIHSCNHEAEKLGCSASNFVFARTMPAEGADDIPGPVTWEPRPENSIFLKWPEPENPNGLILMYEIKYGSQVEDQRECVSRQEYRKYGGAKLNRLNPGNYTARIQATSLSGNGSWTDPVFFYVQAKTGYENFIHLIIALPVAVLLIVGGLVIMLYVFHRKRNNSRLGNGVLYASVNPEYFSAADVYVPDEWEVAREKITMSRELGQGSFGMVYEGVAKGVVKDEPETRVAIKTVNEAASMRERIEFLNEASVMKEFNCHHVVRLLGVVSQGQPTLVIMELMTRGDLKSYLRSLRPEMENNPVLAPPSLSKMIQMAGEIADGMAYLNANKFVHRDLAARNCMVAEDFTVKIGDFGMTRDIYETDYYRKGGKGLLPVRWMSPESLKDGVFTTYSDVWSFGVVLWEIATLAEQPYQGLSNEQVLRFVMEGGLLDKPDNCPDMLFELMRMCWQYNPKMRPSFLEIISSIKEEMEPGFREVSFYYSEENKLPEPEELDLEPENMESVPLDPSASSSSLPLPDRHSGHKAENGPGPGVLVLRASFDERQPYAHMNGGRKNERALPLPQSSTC

By Kd is commonly meant a measure of binding affinity in units of concentration. As to `C[C@@H](Oc1cc(C(=O)Nc2ccc(C(=O)N3CCN(C)CC3)cc2)nnc1N)c1c(Cl)ccc(F)c1Cl`, the Kd in assay [1] was > 30 µM (inactive); in assay [2], > 30 µM (inactive); in assay [3], > 30 µM (inactive); in assay [4], > 30 µM (inactive); in [5], 2.19 µM (active); in [6], > 30 µM (inactive). In addition, the Kd in assay [7], in assay [8], in assay [9] and in assay [10] was > 30 µM (inactive) throughout.

Take `C[C@H]1CNCCCN1S(=O)(=O)c1cccc2cncc(F)c12`: the Kd in [1], in assay [2], in assay [3], in assay [4], in assay [5] and in assay [6] was > 30 µM (inactive) in each case. For the same compound, the Kd in assay [7], in assay [8], in [9] and in assay [10] was > 30 µM (inactive) each time.

In the case of `CCNC(=O)C#Cc1ccc2c(c1)NC(=O)/C2=C(\Nc1ccc(CN(C)C)cc1)c1ccccc1`, the Kd in assay [1], in assay [2], in [3], in assay [4], in assay [5] and in assay [6] was > 30 µM (inactive) throughout. Moreover, the Kd in assay [7], in [8], in assay [9] and in [10] was > 30 µM (inactive) in each case.

Regarding `C=CC(=O)N1CCC[C@H](n2c(=O)n(-c3ccc(Oc4ccccc4)cc3)c3c(N)ncnc32)C1`, the Kd in [1], in assay [2], in [3], in assay [4], in assay [5] and in [6] was > 30 µM (inactive) throughout. Besides, the Kd in [7], in assay [8], in assay [9] and in assay [10] was > 30 µM (inactive) throughout.

Turning to `Cc1nc2cc(-c3nn(C(C)C)c4ncnc(N)c34)ccc2o1`, the Kd in assay [1] is > 30 µM (inactive); in assay [2], > 30 µM (inactive); in assay [3] it was > 30 µM (inactive); in assay [4], > 30 µM (inactive); in assay [5], 1.05 µM (active); in assay [6], 6.17 µM. In addition, the Kd is > 30 µM (inactive) in assay [7], > 30 µM (inactive) in assay [8], > 30 µM (inactive) in assay [9] and 5.96 µM (active) in assay [10].

Regarding `COCc1c(-c2ccc(NC(=O)Nc3cc(C(F)(F)F)ccc3F)c(F)c2)c2c(N)ncnn2c1CN1CCOCC1`, the Kd in assay [1], in assay [2], in assay [3], in [4], in assay [5] and in [6] was > 30 µM (inactive) throughout. In addition, the Kd in assay [7], in assay [8], in [9] and in assay [10] was > 30 µM (inactive) each time.

Regarding `Cc1csc(-c2nnc(Nc3ccc(Oc4ncccc4-c4ccnc(N)n4)cc3)c3ccccc23)c1` [AMG-900], the Kd in assay [1] is > 30 µM (inactive); in [2], 2.51 µM; in [3], 2.69 µM (active); in [4], 1.91 µM (active); in assay [5] it was > 30 µM (inactive); in assay [6], > 30 µM (inactive). Moreover, the Kd is > 30 µM (inactive) in assay [7], > 30 µM (inactive) in assay [8], > 30 µM (inactive) in [9] and 1.82 µM (active) in [10].

`NC(=O)Nc1cc(-c2cccc(F)c2)sc1C(=O)N[C@H]1CCCNC1` [AZD-7762]: the Kd was > 30 µM (inactive) in [1]; > 30 µM (inactive) in assay [2]; > 30 µM (inactive) in assay [3]; 2.14 µM (active) in assay [4]; > 30 µM (inactive) in assay [5]; > 30 µM (inactive) in [6]. Also, the Kd in [7], in assay [8], in [9] and in assay [10] was > 30 µM (inactive) throughout.

`Cn1cnc2c(F)c(Nc3ccc(Br)cc3F)c(C(=O)NOCCO)cc21` [BINIMETINIB]: the Kd in assay [1], in [2], in [3], in [4], in assay [5] and in assay [6] was > 30 µM (inactive) in each case. Also, the Kd in assay [7], in [8], in [9] and in assay [10] was > 30 µM (inactive) each time.

For `Cc1nc2cc(-n3ncc(C(=O)c4cc5ccccc5[nH]4)c3N)ccc2[nH]1` [FGFR INHIBITOR DEBIO 1347], the Kd in assay [1] is > 30 µM (inactive); in assay [2] it was > 30 µM (inactive); in assay [3] it was 0.018 µM; in [4], > 30 µM (inactive); in assay [5], > 30 µM (inactive); in assay [6] it was > 30 µM (inactive). For the same compound, the Kd in [7], in [8] and in assay [9] was > 30 µM (inactive) each time.
